For the test, the target named is Platelet-activating factor receptor (Cavia porcellus, UniProt P21556). Briefly: Displacement of [3H]-WEB 2086 from Platelet activating factor receptor (guinea pig) transgenic mouse muscle membrane.
Platelet-activating factor receptor, sequence (P21556 whole entry): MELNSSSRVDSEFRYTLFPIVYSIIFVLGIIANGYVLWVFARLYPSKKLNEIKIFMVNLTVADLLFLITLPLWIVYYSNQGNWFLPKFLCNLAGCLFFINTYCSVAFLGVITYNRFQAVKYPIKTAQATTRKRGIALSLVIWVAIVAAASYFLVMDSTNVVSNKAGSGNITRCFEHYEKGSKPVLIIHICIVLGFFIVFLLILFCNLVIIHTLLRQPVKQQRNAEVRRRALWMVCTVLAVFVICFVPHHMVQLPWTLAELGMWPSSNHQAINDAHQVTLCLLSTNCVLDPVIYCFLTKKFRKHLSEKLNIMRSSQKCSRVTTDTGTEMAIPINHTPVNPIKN
Usually Ki stands for a measure of affinity in units of concentration, obtained from inhibition or displacement. Turning to `C[C@@H]1C(=O)OC2[C@H](O)C34C5C[C@H](C(C)(C)C)C36C(OC(=O)[C@@H]6OCc3ccccc3)OC4(C(=O)O5)[C@]21O` (some centres undefined), the affinity, expressed as Ki, was 120 nM. This counts as sub-micromolar. In the case of `C[C@@H]1C(=O)OC2[C@H](O)C34C5OC(=O)C3(OC3OC(=O)[C@H](OCc6ccccc6)C34[C@@H](C(C)(C)C)[C@H]5O)[C@]21O` (some centres undefined) it was 600 nM.

With `CN[C@H]1C2OC(=O)C34OC5OC(=O)[C@H](O)C5([C@H]1C(C)(C)C)C23[C@@H](O)C1OC(=O)[C@@H](C)[C@@]14O` (some centres undefined), the affinity corresponds to a Ki of 610 nM. In the case of `C[C@@H]1C(=O)O[C@H]2[C@H](O)[C@]34[C@@H]5OC(=O)[C@]3(OC3OC(=O)[C@H](O)C34C(C(C)(C)C)[C@@H]5O)[C@@]12O` (single isomer, unassigned) it was 12600 nM; in that of `C[C@@H]1C(=O)OC2[C@H](O)C34C5OC(=O)C3(OC3OC(=O)[C@H](O)C34[C@@H](C(C)(C)C)[C@H]5F)[C@]21O` (some centres undefined), 990 nM; in that of `CCN[C@H]1C2OC(=O)C34OC5OC(=O)[C@H](O)C5([C@H]1C(C)(C)C)C23[C@@H](O)C1OC(=O)[C@@H](C)[C@@]14O` (some centres undefined), 1620 nM. With `C[C@@H]1C(=O)O[C@H]2[C@H](O)[C@]34[C@@H]5OC(=O)[C@]3(OC3OC(=O)[C@H](O)C34C(C(C)(C)C)[C@H]5O)[C@@]12O` (single isomer, unassigned), the affinity, expressed as Ki, was 4260 nM. Compared with the last compound, the Ki is about 2.6-fold higher.

As for `C[C@@H]1C(=O)OC2[C@H](O)C34C5OC(=O)C3(OC3OC(=O)[C@H](OCc6ccccc6)C34[C@@H](C(C)(C)C)[C@H]5F)[C@]21O` (some centres undefined), the Ki was determined as 100 nM. In the case of `C[C@@H]1C(=O)OC2[C@H](O)C34C5OC(=O)C3(OC3OC(=O)[C@H](O)C34[C@@H](C(C)(C)C)[C@H]5Cl)[C@]21O` (some centres undefined) it was 110 nM. The figure for `C[C@@H]1C(=O)OC2[C@H](O)C34C5OC(=O)C3(OC3OC(=O)[C@H](O)C34[C@@H](C(C)(C)C)[C@H]5N)[C@]21O` (some centres undefined) is 8640 nM. In the case of `C[C@@H]1C(=O)OC2[C@H](O)C34C5OC(=O)C3(OC3OC(=O)[C@H](O)C34[C@@H](C(C)(C)C)[C@H]5N=[N+]=[N-])[C@]21O` (some centres undefined) it was 550 nM; in that of `CC(=O)O[C@H]1C2OC(=O)C34OC5OC(=O)[C@H](O)C5([C@H]1C(C)(C)C)C23[C@@H](O)C1OC(=O)[C@@H](C)[C@@]14O` (some centres undefined), 7840 nM; in that of `C[C@@H]1C(=O)O[C@H]2[C@H](O)[C@@]34[C@H]5CC(C(C)(C)C)[C@]36[C@@H](OC(=O)[C@@H]6O)O[C@@]4(C(=O)O5)[C@@]12O` (single isomer, unassigned) [GINKOLIDE B], 880 nM. As for `C[C@@H]1C(=O)OC2[C@H](O)C34C5OC(=O)C3(OC3OC(=O)[C@H](OCc6ccccc6)C34[C@@H](C(C)(C)C)[C@@H]5O)[C@]21O` (some centres undefined), affinity was put at a Ki of 1670 nM.
